This note sets out measurements from PubChem BioAssay (NCI).

Among the test systems are 786-0 renal; A549 NSCLC; COLO 205 colon; HL-60(TB) leukemia; K-562 leukemia; MOLT-4 leukemia; NCI-H23 lung; NCI/ADR-RES ovarian; PC-3 prostate; SK-MEL-5 melanoma.
What all share (assay): NCI anticancer screen, dose series, 48 h

Structures are written as SMILES. Several values for one entry are separate records, joined by “and”; a condition that tells them apart may be missing. Identical values can stand only once.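 Exposure lasted 48 hours, with cells grown in 96-well plates and compounds tested at five concentrations. At the GI50, growth is halved. The concentration for full growth arrest is given as TGI.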 Bounds are passed on as bounds.

For `CCOC(=O)NC1=C(N2CC2)C(=O)C(NC(=O)OCC)=C(N2CC2)C1=O`, the GI50 was 4.02 µM and 1.78 µM with 786-0 renal; 6.46 µM and 1.64 µM and 3.09 µM with A549 NSCLC; 15.1 µM and 8.56 µM in the assay on COLO 205 colon; 1.85 µM and 0.403 µM in the assay with HL-60(TB) leukemia; 6.13 µM in the assay with K-562 leukemia; 3.25 µM in the assay on MOLT-4 leukemia. The GI50 with NCI-H23 lung is 2.87 µM and 1.61 µM; in the assay with NCI/ADR-RES ovarian, 8.44 µM; in the assay on SK-MEL-5 melanoma, 4.7 µM. Moreover, the TGI was 25 µM and 18.4 µM and 33.2 µM in the assay on 786-0 renal; 25 µM and 43 µM and 40.2 µM in the assay on A549 NSCLC; 25 µM and 33 µM and 51.1 µM in the assay with COLO 205 colon; 11 µM and 4 µM and 1.49 µM in the assay on HL-60(TB) leukemia; 20.8 µM and 38.3 µM and 17 µM with K-562 leukemia; 12.6 µM and 11 µM in the assay with MOLT-4 leukemia. The TGI is 15.6 µM and 14.1 µM and 7.55 µM in the assay on NCI-H23 lung; 25 µM and 16.8 µM with NCI/ADR-RES ovarian; 16.2 µM in the assay on PC-3 prostate; 15 µM and 9.97 µM and 7.95 µM in the assay on SK-MEL-5 melanoma.

As for `CN1C(=O)C(=Cc2cn(Cc3ccccc3)c3ccccc23)C(=O)N(C)C1=O`, the GI50 in the assay with 786-0 renal was 57.7 µM; with A549 NSCLC it was > 39.7 µM; in the assay on COLO 205 colon it was 0.712 µM; with HL-60(TB) leukemia it was > 43.4 µM; with K-562 leukemia, 5.08 µM; in the assay on MOLT-4 leukemia it was 68.3 µM. Moreover, the GI50 in the assay on NCI-H23 lung is 44.2 µM; in the assay on NCI/ADR-RES ovarian, > 70 µM; in the assay on PC-3 prostate, 27 µM; in the assay on SK-MEL-5 melanoma it was 25.7 µM. In addition, the TGI was > 100 µM with 786-0 renal; > 100 µM in the assay on A549 NSCLC; 6.67 µM in the assay with COLO 205 colon; > 100 µM in the assay with HL-60(TB) leukemia; > 100 µM in the assay with K-562 leukemia; > 100 µM in the assay on MOLT-4 leukemia. The TGI in the assay with NCI-H23 lung, with NCI/ADR-RES ovarian, with PC-3 prostate and in the assay on SK-MEL-5 melanoma was > 100 µM in each case.

As to `COc1ccc([I+]c2ccccc2)cc1`, the GI50 with 786-0 renal was 16.4 µM; with A549 NSCLC, 4.38 µM; in the assay on COLO 205 colon it was 5.95 µM; in the assay with HL-60(TB) leukemia it was 5.22 µM; in the assay on K-562 leukemia, 1.45 µM; in the assay on MOLT-4 leukemia it was 7.59 µM. In addition, the GI50 is 3.75 µM in the assay with NCI-H23 lung, > 100 µM in the assay with NCI/ADR-RES ovarian, 9.07 µM in the assay on PC-3 prostate and 2.61 µM in the assay on SK-MEL-5 melanoma. The TGI was > 100 µM in the assay on 786-0 renal; > 100 µM in the assay with A549 NSCLC; > 100 µM with COLO 205 colon; > 95.1 µM in the assay on HL-60(TB) leukemia; > 100 µM in the assay with K-562 leukemia; > 100 µM with MOLT-4 leukemia. In addition, the TGI in the assay on NCI-H23 lung was > 100 µM; in the assay with NCI/ADR-RES ovarian, > 100 µM; with PC-3 prostate, > 100 µM; with SK-MEL-5 melanoma it was 11.5 µM.

`CC1(C)CCC[C@]2(C)c3cc(O)ccc3CC[C@@H]12`: the GI50 in the assay on 786-0 renal was 27.3 µM; in the assay with A549 NSCLC, 19 µM; in the assay on COLO 205 colon it was 20.4 µM; with HL-60(TB) leukemia, 16 µM; in the assay on K-562 leukemia, 10.9 µM; with MOLT-4 leukemia it was 11.7 µM. Moreover, the GI50 with NCI-H23 lung is 17.3 µM; in the assay on NCI/ADR-RES ovarian, 16.5 µM; with PC-3 prostate it was 15.8 µM; in the assay on SK-MEL-5 melanoma it was 11.3 µM. Moreover, the TGI in the assay on 786-0 renal turned out to be 79.7 µM; with A549 NSCLC, 36.5 µM; with COLO 205 colon, 46 µM; in the assay with HL-60(TB) leukemia, 48.5 µM; in the assay with K-562 leukemia, 29.5 µM; in the assay on MOLT-4 leukemia, 67.3 µM. Also, the TGI in the assay with NCI-H23 lung was determined as 34.3 µM; in the assay on NCI/ADR-RES ovarian it was 32.5 µM; in the assay with PC-3 prostate, 30.2 µM; in the assay with SK-MEL-5 melanoma it was 23.4 µM.

Turning to `N#C/C(=C\Nc1ccccn1)C(=O)c1ccco1`, the TGI in the assay on 786-0 renal, in the assay with A549 NSCLC, in the assay with COLO 205 colon, in the assay on HL-60(TB) leukemia, in the assay on K-562 leukemia and with MOLT-4 leukemia was > 100 µM throughout. Also, the TGI in the assay on NCI-H23 lung, with NCI/ADR-RES ovarian, in the assay with PC-3 prostate and in the assay on SK-MEL-5 melanoma was > 100 µM each time.

For the compound `O=C(O)C1C(=O)Oc2c(cccc2[N+](=O)[O-])C1O` (stereo not drawn), the TGI in the assay on 786-0 renal, with A549 NSCLC, in the assay on COLO 205 colon, with HL-60(TB) leukemia, in the assay on K-562 leukemia and in the assay on MOLT-4 leukemia was > 100 µM in each case. For the same compound, the TGI with NCI-H23 lung, in the assay on NCI/ADR-RES ovarian, in the assay with PC-3 prostate and with SK-MEL-5 melanoma was > 100 µM in each case.

Consider `O=C(NCCN1CCC(O)CC1)c1cc2c(o1)C(=O)c1ccccc1C2=O`, for which the GI50 in the assay with 786-0 renal is 1.44 µM; in the assay on A549 NSCLC it was 0.213 µM; in the assay with COLO 205 colon, 0.078 µM; in the assay with HL-60(TB) leukemia, 0.282 µM; in the assay with K-562 leukemia, 0.378 µM; in the assay with MOLT-4 leukemia, 0.383 µM. In addition, the GI50 is 0.0536 µM in the assay with NCI-H23 lung, 1.52 µM in the assay with NCI/ADR-RES ovarian, 0.294 µM with PC-3 prostate and 0.141 µM in the assay on SK-MEL-5 melanoma. For the same compound, the TGI amounted to 2.96 µM in the assay with 786-0 renal; 0.514 µM in the assay on A549 NSCLC; 0.228 µM in the assay on COLO 205 colon; 1.02 µM with HL-60(TB) leukemia; 1.74 µM in the assay on MOLT-4 leukemia; 0.257 µM in the assay on NCI-H23 lung. Moreover, the TGI in the assay on NCI/ADR-RES ovarian was 5.24 µM; with PC-3 prostate, 2.39 µM; with SK-MEL-5 melanoma, 0.275 µM.

Consider `Oc1ccc2ccccc2c1C1NN=C(c2ccccc2)S1` (stereo not drawn), for which the GI50 in the assay on 786-0 renal was 0.424 µM; in the assay with A549 NSCLC, 0.587 µM; in the assay on COLO 205 colon, 0.55 µM; in the assay with HL-60(TB) leukemia, 0.353 µM; with K-562 leukemia it was 0.504 µM; with MOLT-4 leukemia, 0.467 µM. Moreover, the GI50 is 1.26 µM with NCI-H23 lung, 0.383 µM with NCI/ADR-RES ovarian, 0.645 µM in the assay on PC-3 prostate and 0.342 µM with SK-MEL-5 melanoma. Besides, the TGI in the assay on 786-0 renal was > 34.6 µM; with A549 NSCLC, 84.1 µM; in the assay with COLO 205 colon it was 16.3 µM; in the assay with HL-60(TB) leukemia it was 4.13 µM; in the assay on K-562 leukemia, > 100 µM; with MOLT-4 leukemia, > 56.9 µM. In addition, the TGI in the assay on NCI-H23 lung was 48.7 µM; in the assay on NCI/ADR-RES ovarian it was 62.8 µM; with PC-3 prostate, > 100 µM; in the assay on SK-MEL-5 melanoma it was 2 µM.
